Results taken from patent US20170190671A1, “BIS(ARYL)CATECHOL DERIVATIVES AS HERBICIDES” (E I DU PONT DE NEMOURS AND COMPANY, priority 2014, published 2017).

Columns and labels:
Assay type in all cases: in vivo
[1] = system: barnyardgrass (Echinochloa crus-galli); experiment: Test B flooded paddy; conditions: Echinochloa crus-galli, 336 h; 250 g ai/ha, Flood, 13 to 15 days, scale 0 (no effect) to 100 (complete control); read-out: Plant response rating, Barnyardgrass
How it was run: (§1)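 Visual injury ratings against untreated controls, taken 13 to 15 days after compound was added to paddy water standing 3 cm above the soil.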

[2] = system: ducksalad (Heteranthera limosa); experiment: Test B flooded paddy; conditions: Heteranthera limosa, 336 h; 250 g ai/ha, Flood, 13 to 15 days, scale 0 (no effect) to 100 (complete control); read-out: Plant response rating, Ducksalad
How it was run: as §1

rice (Oryza sativa) = experiment: Test B flooded paddy; conditions: Oryza sativa, 336 h; 250 g ai/ha, Flood, 13 to 15 days, scale 0 (no effect) to 100 (complete control); read-out: Plant response rating, Rice
How it was run: as §1

[3] = system: sedge, umbrella (small-flower umbrella sedge, Cyperus difformis); experiment: Test B flooded paddy; conditions: Cyperus difformis, 336 h; 250 g ai/ha, Flood, 13 to 15 days, scale 0 (no effect) to 100 (complete control); read-out: Plant response rating, Sedge, Umbrella
How it was run: as §1

[4] = system: Italian ryegrass (Lolium multiflorum); experiment: Test A preemergence; conditions: Lolium multiflorum, pre-emergence, 240 h
How it was run: (§2)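 Visual injury scored 0–100 (100 = complete control) against untreated controls about 10 days after treatment in a greenhouse. Test chemicals, formulated with surfactant in non-phytotoxic solvent, were sprayed on soil preemergence or on 2-10 cm, one- to two-leaf plants postemergence.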

[5] = system: barnyardgrass (Echinochloa crus-galli); experiment: Test A preemergence; conditions: Echinochloa crus-galli, pre-emergence, 240 h
How it was run: as §2

[6] = system: giant foxtail (Setaria faberii); experiment: Test A preemergence; conditions: Setaria faberi, pre-emergence, 240 h
How it was run: as §2

kochia (Kochia scoparia) [7] = experiment: Test A preemergence; conditions: Bassia scoparia, pre-emergence, 240 h
How it was run: as §2

[8] = system: pigweed (Amaranthus retroflexus); experiment: Test A preemergence; conditions: Amaranthus retroflexus, pre-emergence, 240 h
How it was run: as §2

[9] = system: ragweed (common ragweed, Ambrosia elatior); experiment: Test A preemergence; conditions: Ambrosia artemisiifolia, pre-emergence, 240 h
How it was run: as §2

[10] = system: Italian ryegrass (Lolium multiflorum); experiment: Test A postemergence; conditions: Lolium multiflorum, post-emergence, 240 h, 0 to 100 scale, read-out: Plant response rating, Ryegrass, Italian
How it was run: as §2

[11] = system: barnyardgrass (Echinochloa crus-galli); experiment: Test A postemergence; conditions: Echinochloa crus-galli, post-emergence, 240 h, 0 to 100 scale, read-out: Plant response rating, Barnyardgrass
How it was run: as §2

[12] = system: blackgrass (Alopecurus myosuroides); experiment: Test A postemergence; conditions: Alopecurus myosuroides, post-emergence, 240 h, 0 to 100 scale, read-out: Plant response rating, Blackgrass
How it was run: as §2

corn (Zea mays) = experiment: Test A postemergence; conditions: Zea mays, post-emergence, 240 h, 0 to 100 scale
How it was run: as §2

[13] = system: galium (catchweed bedstraw, Galium aparine); experiment: Test A postemergence; conditions: Galium, post-emergence, 240 h, 0 to 100 scale, read-out: Plant response rating, Galium
How it was run: as §2

[14] = system: giant foxtail (Setaria faberii); experiment: Test A postemergence; conditions: Setaria faberi, post-emergence, 240 h, 0 to 100 scale, read-out: Plant response rating, Foxtail, Giant
How it was run: as §2

kochia (Kochia scoparia) [15] = experiment: Test A postemergence; conditions: Bassia scoparia, post-emergence, 240 h, 0 to 100 scale, read-out: Plant response rating, Kochia
How it was run: as §2

[16] = system: pigweed (Amaranthus retroflexus); experiment: Test A postemergence; conditions: Amaranthus retroflexus, post-emergence, 240 h, 0 to 100 scale, read-out: Plant response rating, Pigweed
How it was run: as §2

[17] = system: ragweed (common ragweed, Ambrosia elatior); experiment: Test A postemergence; conditions: Ambrosia artemisiifolia, post-emergence, 240 h, 0 to 100 scale, read-out: Plant response rating, Ragweed
How it was run: as §2

[18] = system: wheat (Triticum aestivum); experiment: Test A postemergence; conditions: Triticum aestivum, post-emergence, 240 h, 0 to 100 scale, read-out: Plant response rating, Wheat
How it was run: as §2

## N#Cc1cccc(Oc2ncc(Br)cn2)c1Oc1ccc(Cl)cn1 [Compound 11]
[1]
  pest or weed control at 250 g/ha: 0%
[2]
  pest or weed control at 250 g/ha: 100%
Rice (Oryza sativa)
  plant injury at 250 g/ha: 0%
[3]
  pest or weed control at 250 g/ha: 85%
[4]; 31 g ai/ha, 0 to 100 scale (0 no effect, 100 complete control), read-out: Ryegrass, Italian plant response rating
  pest or weed control at 31 g/ha: 0%
[4]; 125 g ai/ha, 0 to 100 scale, read-out: Plant response rating, Ryegrass, Italian
  pest or weed control at 125 g/ha: 10%
[4]; 500 g ai/ha, 0 to 100 scale, read-out: Plant response rating, Ryegrass, Italian
  pest or weed control at 500 g/ha: 90%
[5]; 31 g ai/ha, 0 to 100 scale (0 no effect, 100 complete control), read-out: Barnyardgrass plant response rating
  pest or weed control at 31 g/ha: 0%
[5]; 125 g ai/ha, 0 to 100 scale, read-out: Plant response rating, Barnyardgrass
  pest or weed control at 125 g/ha: 80%
[5]; 500 g ai/ha, 0 to 100 scale, read-out: Plant response rating, Barnyardgrass
  pest or weed control at 500 g/ha: 100%
[6]; 31 g ai/ha, 0 to 100 scale (0 no effect, 100 complete control), read-out: Foxtail, Giant plant response rating
  pest or weed control at 31 g/ha: 20%
[6]; 125 g ai/ha, 0 to 100 scale, read-out: Plant response rating, Foxtail, Giant
  pest or weed control at 125 g/ha: 100%
[6]; 500 g ai/ha, 0 to 100 scale, read-out: Plant response rating, Foxtail, Giant
  pest or weed control at 500 g/ha: 100%
Kochia (Kochia scoparia) [7]; 31 g ai/ha, 0 to 100 scale (0 no effect, 100 complete control), read-out: Kochia plant response rating
  pest or weed control at 31 g/ha: 10%
Kochia (Kochia scoparia) [7]; 125 g ai/ha, 0 to 100 scale, read-out: Plant response rating, Kochia
  pest or weed control at 125 g/ha: 75%
Kochia (Kochia scoparia) [7]; 500 g ai/ha, 0 to 100 scale, read-out: Plant response rating, Kochia
  pest or weed control at 500 g/ha: 100%
[8]; 31 g ai/ha, 0 to 100 scale (0 no effect, 100 complete control), read-out: Pigweed plant response rating
  pest or weed control at 31 g/ha: 90%
[8]; 125 g ai/ha, 0 to 100 scale, read-out: Plant response rating, Pigweed
  pest or weed control at 125 g/ha: 100%
[8]; 500 g ai/ha, 0 to 100 scale, read-out: Plant response rating, Pigweed
  pest or weed control at 500 g/ha: 100%
[9]; 31 g ai/ha, 0 to 100 scale (0 no effect, 100 complete control), read-out: Ragweed plant response rating
  pest or weed control at 31 g/ha: 0%
[9]; 125 g ai/ha, 0 to 100 scale, read-out: Plant response rating, Ragweed
  pest or weed control at 125 g/ha: 0%
[9]; 500 g ai/ha, 0 to 100 scale, read-out: Plant response rating, Ragweed
  pest or weed control at 500 g/ha: 10%
[10]; 31 g ai/ha
  pest or weed control at 31 g/ha: 0%
[10]; 125 g ai/ha
  pest or weed control at 125 g/ha: 25%
[10]; 500 g ai/ha
  pest or weed control at 500 g/ha: 90%
[11]; 31 g ai/ha
  pest or weed control at 31 g/ha: 0%
[11]; 125 g ai/ha
  pest or weed control at 125 g/ha: 80%
[11]; 500 g ai/ha
  pest or weed control at 500 g/ha: 100%
[12]; 31 g ai/ha
  pest or weed control at 31 g/ha: 10%
[12]; 125 g ai/ha
  pest or weed control at 125 g/ha: 90%
[12]; 500 g ai/ha
  pest or weed control at 500 g/ha: 100%
Corn (Zea mays); 31 g ai/ha
  Corn plant response rating (crop injury, 0 = no effect, 100 = complete kill) at 31 g/ha: 10%
Corn (Zea mays); 125 g ai/ha
  Corn plant response rating (crop injury, 0 = no effect, 100 = complete kill) at 125 g/ha: 30%
Corn (Zea mays); 500 g ai/ha
  Corn plant response rating (crop injury, 0 = no effect, 100 = complete kill) at 500 g/ha: 100%
[13]; 31 g ai/ha
  pest or weed control at 31 g/ha: 70%
[13]; 125 g ai/ha
  pest or weed control at 125 g/ha: 100%
[13]; 500 g ai/ha
  pest or weed control at 500 g/ha: 100%
[14]; 31 g ai/ha
  pest or weed control at 31 g/ha: 0%
[14]; 125 g ai/ha
  pest or weed control at 125 g/ha: 95%
[14]; 500 g ai/ha
  pest or weed control at 500 g/ha: 100%
Kochia (Kochia scoparia) [15]; 31 g ai/ha
  pest or weed control at 31 g/ha: 40%
Kochia (Kochia scoparia) [15]; 125 g ai/ha
  pest or weed control at 125 g/ha: 95%
Kochia (Kochia scoparia) [15]; 500 g ai/ha
  pest or weed control at 500 g/ha: 100%
[16]; 31 g ai/ha
  pest or weed control at 31 g/ha: 100%
[16]; 125 g ai/ha
  pest or weed control at 125 g/ha: 100%
[16]; 500 g ai/ha
  pest or weed control at 500 g/ha: 100%
[17]; 31 g ai/ha
  pest or weed control at 31 g/ha: 0%
[17]; 125 g ai/ha
  pest or weed control at 125 g/ha: 10%
[17]; 500 g ai/ha
  pest or weed control at 500 g/ha: 10%
[18]; 31 g ai/ha
  plant injury at 31 g/ha: 20%
[18]; 125 g ai/ha
  plant injury at 125 g/ha: 50%
[18]; 500 g ai/ha
  plant injury at 500 g/ha: 90%
